One experiment deals with T1, H^+ /K^+ -ATPase (Sus scrofa, UniProt P19156).
T1 construct: a microsome fraction prepared from porcine gastric mucosa was used as a standard enzyme; from tissue; host or cells: porcine gastric mucosa, microsome fraction
Briefly: Inhibitory Action on H^+ /K^+ -ATPase Activity. The class given is biochemical. As to conditions: microsome fraction from porcine gastric mucosa, pH7.4, 37° C., 30 min preincubation, 15 min reaction. How it is done:
Inhibitory Action on H^+ /K^+ -ATPase Activity
According to the method of Hongo et al. [The Japanese Journal of Pharmacology, 52, p295, (1990)], a microsome fraction prepared from porcine gastric mucosa was used as a standard enzyme. The standard enzyme (10-20lig protein) and the test compound (0.1-100 μM) dissolved in dimethylsulfoxide was incubated at 37° C. for 30 minutes in the 50 mM Tris-acetate buffer (pH7.4, containing 2 mM magnesium chloride, 5 mM potassium chloride). The enzyme reaction was started by adding adenosinetriphosphate (ATP). Tris at the final concentration of 2 mM, and the reaction was kept at 37° C. for 15 minutes. The reaction was stopped by adding chilled 10% trichloroacetic acid. Inorganic phosphate released during the reaction was calorimetrically determined according to the method of Fiske-Subbarow [The Journal of Biological Chemistry, 66, p375, (1925)]. H^+ /K^+ -ATPase activity was determined by the difference of the enzyme activities under the conditions with or without potassium chloride. The inhibitory activities of test compounds were determined as the 50% inhibitory concentration (IC50 value) from reaction-concentration curve, and the results are shown in Table 3.

A further experiment concerns gastric acid secretion. The experiment in a line: Inhibition of Gastric Acid Secretion Observed Under Stomach Perfusion Method. As to conditions: Rattus norvegicus, ip, 1 h; rats, histamine i.v. 8 mg/kg/hr, inhibition one hour after administration (1-10 mg/kg, "intrapenetorially"); read-out: ID50 (dose showing 50% inhibition of acid secretion). The class given is in vivo, male Sprague Dawrey rats. How it is done:
Inhibition of Gastric Acid Secretion Observed Under Stomach Perfusion Method
Male Sprague Dawrey rats (6-7weeks) fasted for 24 hours were used (water ad libitum). The rats were anesthetized by intraperitoneal administration of 1.25 g/kg of urethane. The abdomen was incised, and gastral cavity was perfused with saline during experiment. The perfusate was titrated by 10 mM sodium hydroxide up to pH5.5 using an autotitrator in accordance with Stat-method. Gastric acid secretion was stimulated by intravenous administration of histamine dihydrochloride (8 mg/kg/hr). Two hours after histamine stimulation, a test compound 1-10 mg/kg) was administered intrapenetorially. The test compound was mixed with small amount of polysorbate-80, and the mixture was suspended in saline. The test compound was evaluated using ID50 (dose showing 50% inhibition of acid secretion) which was calculated based on inhibition of the acid secretion observed one hour after administration of the compound.

IC50 and ED50 data for 38 molecules are collected here from US6020342A, “Fused imidazo[1,2-A]pyridines” (Shinnippon Pharmaceutical, Inc., priority 1995, dated 2000).

Each structure is given as a SMILES string.

The IC50 is the concentration needed to halve the response being measured. A higher IC50 goes with lower potency.

T1 sequence (P19156 2-1034 limits assumed): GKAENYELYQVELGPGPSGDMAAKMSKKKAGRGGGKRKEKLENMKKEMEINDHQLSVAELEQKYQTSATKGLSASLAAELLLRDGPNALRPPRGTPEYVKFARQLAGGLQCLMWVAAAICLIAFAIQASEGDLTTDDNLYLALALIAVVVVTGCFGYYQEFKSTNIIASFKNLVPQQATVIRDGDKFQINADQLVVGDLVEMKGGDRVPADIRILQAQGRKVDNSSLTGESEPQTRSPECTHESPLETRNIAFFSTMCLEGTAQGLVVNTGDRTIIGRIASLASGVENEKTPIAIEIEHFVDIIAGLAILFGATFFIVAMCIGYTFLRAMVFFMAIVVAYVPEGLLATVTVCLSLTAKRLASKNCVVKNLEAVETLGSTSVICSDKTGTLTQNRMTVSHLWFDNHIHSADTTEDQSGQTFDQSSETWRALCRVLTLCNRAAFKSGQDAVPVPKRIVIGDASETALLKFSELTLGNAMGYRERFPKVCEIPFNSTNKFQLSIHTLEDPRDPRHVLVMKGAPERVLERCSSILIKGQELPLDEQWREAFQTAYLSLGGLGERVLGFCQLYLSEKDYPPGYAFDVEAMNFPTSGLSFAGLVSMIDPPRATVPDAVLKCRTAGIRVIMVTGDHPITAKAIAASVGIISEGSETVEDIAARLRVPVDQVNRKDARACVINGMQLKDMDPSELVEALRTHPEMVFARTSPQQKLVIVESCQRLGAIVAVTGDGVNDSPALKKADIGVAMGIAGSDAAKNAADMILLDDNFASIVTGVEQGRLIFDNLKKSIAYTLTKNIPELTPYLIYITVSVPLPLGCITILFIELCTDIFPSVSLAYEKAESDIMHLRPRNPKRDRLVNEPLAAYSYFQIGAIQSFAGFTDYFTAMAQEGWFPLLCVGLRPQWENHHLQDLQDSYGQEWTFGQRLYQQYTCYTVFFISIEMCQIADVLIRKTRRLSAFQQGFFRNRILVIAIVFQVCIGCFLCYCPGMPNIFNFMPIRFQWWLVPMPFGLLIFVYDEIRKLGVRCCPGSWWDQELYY
T1 sequence (P18434 whole entry partner): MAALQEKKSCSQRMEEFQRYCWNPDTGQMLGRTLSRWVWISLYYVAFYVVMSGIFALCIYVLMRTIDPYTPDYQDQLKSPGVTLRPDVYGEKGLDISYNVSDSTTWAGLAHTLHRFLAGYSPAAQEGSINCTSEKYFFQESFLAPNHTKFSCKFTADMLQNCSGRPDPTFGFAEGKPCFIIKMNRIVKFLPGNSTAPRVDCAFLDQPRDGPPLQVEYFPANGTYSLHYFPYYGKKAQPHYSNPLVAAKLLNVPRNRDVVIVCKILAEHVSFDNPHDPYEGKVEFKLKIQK

At H^+ /K^+ -ATPase, `Cc1ccc2ccn3c(N)c(-c4ccccc4C)nc3c2c1` [Compound 10, 3-Amino-9-methyl-2-(2-methylphenyl)imidazo[2,1-a]isoquinoline] yielded an IC50 of 20 µM. The ED50 with gastric acid secretion came out at 4.2 mg/kg.

In turn, `CCCc1cc2ccccc2c2nc(-c3ccccc3C)c(N)n12` [Compound 12] had a half-maximal inhibitory concentration (IC50) at H^+ /K^+ -ATPase of 12.5 µM. The ED50 in the experiment with gastric acid secretion came out at 7.2 mg/kg.

As to `Cc1ccccc1-c1nc2c3ccccc3c(CCC(C)C)cn2c1N` [Compound 15, 3-Amino-6-isopentyl-2-(2-methylphenyl)imidazo[2,1-a]isoquinoline], the half-maximal inhibitory concentration (IC50) at H^+ /K^+ -ATPase stood at 3.7 µM.

`COc1ccc(-c2cn3c(N)c(-c4ccccc4C)nc3c3ccccc23)cc1` [Compound 21, 3-Amino-6-(4-methoxyphenyl)-2-(2-methylphenyl)imidazo[2,1-a]isoquinoline] came in with an IC50 against H^+ /K^+ -ATPase of 7.4 µM.

Molecule `Cc1ccccc1-c1nc2c3cc(O)ccc3ccn2c1N` [Compound 22, 3-Amino-9-hydroxy-2-(2-methylphenyl)imidazo[2,1-a]isoquinoline] returned a half-inhibitory concentration (IC50) against H^+ /K^+ -ATPase of 1.9 µM.

Turning to `COc1cn2c(N)c(-c3ccccc3C)nc2c2ccccc12` [Compound 24, 3-Amino-6-methoxy-2-(2-methylphenyl)imidazo[2,1-a]isoquinoline], at H^+ /K^+ -ATPase, half-maximal inhibition (IC50) required 13.5 µM. Moreover, the ED50 in the experiment with gastric acid secretion is 5.4 mg/kg.

For `Cc1ccccc1-c1nc2c3ccccc3c(OCc3ccccc3)cn2c1N` [Compound 38, 3-Amino-6-benzyloxy-2-(2-methylphenyl)imidazo[2,1-a]isoquinoline], the midpoint of inhibition on H^+ /K^+ -ATPase, the IC50, lay at 4.8 µM.

With `Cc1ccccc1-c1nc2c3cc(OC(=O)C(C)C)ccc3ccn2c1N` [Compound 43, 3-Amino-9-isobutyryloxy-2-(2-methylphenyl)imidazo[2,1-a]isoquinoline], the ED50 in the experiment on gastric acid secretion turned out to be 7 mg/kg.

As to `CCN(CC)c1cccc2c1ccn1c(N)c(-c3ccccc3C)nc21` [Compound 54, 3-Amino-7-diethylamino-2-(2-methylphenyl)imidazo[2,1-a]isoquinoline], the midpoint of inhibition against H^+ /K^+ -ATPase, the IC50, lay at 1 µM.

Take `COc1ccc2cc(C)n3c(N)c(-c4ccccc4C)nc3c2c1` [Compound 56, 3-Amino-9-methoxy-5-methyl-2-(2-methylphenyl)imidazo[2,1-a]isoquinoline]: the ED50 with gastric acid secretion was 6.5 mg/kg.

Molecule `Cc1sccc1-c1nc2c3ccccc3ccn2c1N` [Compound 78, 3-Amino-2-(2-methyl-3-thienyl)imidazo[2,1-a]isoquinoline] showed an IC50 at H^+ /K^+ -ATPase of 17 µM. In addition, the ED50 with gastric acid secretion came out at 1.6 mg/kg.

As for `Cc1cc(-c2nc3c4ccccc4ccn3c2N)c(C)s1` [Compound 83, 3-Amino-2-(2,5-dimethyl-3-thienyl)imidazo[2,1-a]isoquinoline], the concentration for half-maximal inhibition (IC50) at H^+ /K^+ -ATPase was 5.6 µM.

`Cn1cccc1-c1nc2c3ccccc3ccn2c1N` [Compound 94, 3-Amino-2-(1-methyl-2-pyrrolyl)imidazo[2,1-a]isoquinoline] showed an IC50 at H^+ /K^+ -ATPase of 3 µM. In the experiment with gastric acid secretion, the ED50 came to 5.8 mg/kg.

Turning to `COc1ccc2c(c1)-c1nc(-c3ccccc3C)c(N)n1CC2` [Compound 103, 3-Amino-9-methoxy-2-(2-methylphenyl)-5,6-dihydroimidazo[2,1-a]isoquinoline], the ED50 with gastric acid secretion was 7.4 mg/kg.

With `Cc1ccccc1-c1nc2n(c1N)C(C)(C)Cc1ccccc1-2` [Compound 104, 3-Amino-5,5-dimethyl-2-(2-methylphenyl)-5,6-dihydroimidazo[2,1-a]isoquinoline], the IC50 against H^+ /K^+ -ATPase came out at 12 µM.

At H^+ /K^+ -ATPase, `Cc1cc(O)ccc1-c1nc2n(c1N)CCc1ccccc1-2` [Compound 107, 3-Amino-2-(4-hydroxy-2-methylphenyl)-5,6-dihydroimidazo[2,1-a]isoquinoline] had an IC50 of 33 µM.

The molecule `CC(=O)N(Cc1ccc(C)cc1)c1c(-c2ccccc2C)nc2c3ccccc3ccn12` [Compound 151, 3-[N-Acetyl-N-(4-methylbenzyl)amino]-2-(2-methylphenyl)imidazo[2,1-a]isoquinoline] gave a concentration for half-maximal inhibition (IC50) against H^+ /K^+ -ATPase of 7.8 µM.

`CCCc1cccc2c1ccn1c(NCC)c(-c3ccccc3C)nc21` [Compound 163, 3-Ethylamino-2-(2-methylphenyl)-7-propylimidazo[2,1-a]isoquinoline] showed a concentration for half-maximal inhibition (IC50) against H^+ /K^+ -ATPase of 4.6 µM.

Turning to `CCNc1c(-c2ccccc2C)nc2c3cccc(OCc4ccccc4)c3ccn12` [Compound 169, 7-Benzyloxy-3-ethylamino-2-(2-methylphenyl)imidazo[2,1-a]isoquinoline], it took 5.8 µM to reach half-maximal inhibition against H^+ /K^+ -ATPase (IC50).

On H^+ /K^+ -ATPase, `Cc1ccc(-c2nc3c4ccccc4ccn3c2NCCC(C)C)c(C)c1` [Compound 189, 3-Isopentylamino-2-(2,4-dimethylphenyl)imidazo[2,1-a]isoquinoline] showed a 50% inhibitory concentration (IC50) of 6.8 µM.

Take `CCCCCCNc1c(-c2ccccc2C)nc2c3ccccc3ccn12` [Compound 191, 3-Hexylamino-2-(2-methylphenyl)imidazo[2,1-a]isoquinoline]: on H^+ /K^+ -ATPase, the IC50 was found to be 5.2 µM.

Turning to `Cc1ccccc1-c1nc2c3ccccc3ccn2c1NC(C)c1ccccc1` (stereo not shown) [Compound 192, 2-(2-Methylphenyl)-3-[(1-phenylethyl)amino]imidazo[2,1-a]isoquinoline], the IC50 against H^+ /K^+ -ATPase came to 4.4 µM.

Consider `Cc1ccccc1-c1nc2c3ccccc3ccn2c1NCc1ccc2ccccc2c1Br` [Compound 195], for which, at H^+ /K^+ -ATPase, 8.8 µM corresponded to half-maximal inhibition (IC50).

In the case of `CCN(CC)c1c(-c2ccccc2C)nc2c3cccc(Br)c3ccn12` [Compound 200, 7-Bromo-3-diethylamino-2-(2-methylphenyl)imidazo[2,1-a]isoquinoline], the half-inhibitory concentration (IC50) against H^+ /K^+ -ATPase was found to be 1.2 µM.

Turning to `CCN(CCCl)c1c(-c2ccccc2C)nc2c3ccccc3ccn12` [Compound 202, 3-[N-(2-Chloroethyl)-N-ethylamino]-2-(2-methylphenyl)imidazo[2,1-a]isoquinoline], the half-inhibitory concentration (IC50) against H^+ /K^+ -ATPase came out at 9.8 µM.

Turning to `CCCN(CC)c1c(-c2ccccc2F)nc2c3ccccc3ccn12` [Compound 206, 3-(N-Ethyl-N-propylamino)-2-(2-fluorophenyl)imidazo[2,1-a]isoquinoline], the midpoint of inhibition on H^+ /K^+ -ATPase, the IC50, lay at 2.3 µM.

Consider `CCCN(CC)c1c(-c2cccc(C)c2)nc2c3ccccc3ccn12` [Compound 211, 3-(N-Ethyl-N-propylamino)-2-(3-methylphenyl)imidazo[2,1-a]isoquinoline], for which half-maximal inhibition against H^+ /K^+ -ATPase (IC50) required 2.4 µM.

On to `CCN(Cc1ccc(C)cc1)c1c(-c2ccccc2C)nc2c3ccccc3ccn12` [Compound 219, 3-[N-Ethyl-N-(4-methylbenzyl)amino]-2-(2-methylphenyl)imidazo[2,1-a]isoquinoline], for which the half-maximal inhibitory concentration (IC50) on H^+ /K^+ -ATPase turned out to be 3.6 µM.

On to `CCc1ccccc1-c1nc2c3ccccc3ccn2c1N=Cc1ccc(C)cc1` [Compound 226, 2-(2-Ethylphenyl)-3-(4-methylbenzylideneamino)imidazo[2,1-a]isoquinoline], for which, at H^+ /K^+ -ATPase, the IC50 stood at 1.9 µM.

As for `CCc1cc2sccc2c2nc(-c3ccccc3C)c(N)n12` [Compound 238, 3-Amino-5-ethyl-2-(2-methylphenyl)imidazo[1,2-a]thieno[3,2-c]pyridine], it took 2.9 µM to reach half-maximal inhibition against H^+ /K^+ -ATPase (IC50).

For the molecule `Cc1ccccc1-c1nc2c3ccsc3c(C)c(C)n2c1N` [Compound 239, 3-Amino-5,6-dimethyl-2-(2-methylphenyl)imidazo[1,2-a]thieno[3,2-c]pyridine], half-maximal inhibition at H^+ /K^+ -ATPase (IC50) was put at 26 µM.

The molecule `COc1ccccc1-c1nc2c3ccsc3cc(C)n2c1N` [Compound 245, 3-Amino-2-(2-methoxyphenyl)-5-methylimidazo[1,2-a]thieno[3,2-c]pyridine] registered an IC50 against H^+ /K^+ -ATPase of 9 µM.

Molecule `Cc1cc(Cl)ccc1-c1nc2c3ccsc3cc(C)n2c1N` [Compound 248, 3-Amino-2-(4-chloro-2-methylphenyl)-5-methylimidazo[1,2-a]thieno[3,2-c]pyridine] had an IC50 against H^+ /K^+ -ATPase of 4.7 µM.

Molecule `Cc1cc(-c2nc3c4ccsc4ccn3c2N)c(C)s1` [Compound 264, 3-Amino-2-(2,5-dimethyl-3-thienyl)imidazo[1,2-a]thieno[3,2-c]pyridine] showed a half-inhibitory concentration (IC50) at H^+ /K^+ -ATPase of 1.2 µM.

As to `Cn1cccc1-c1nc2c3ccsc3ccn2c1N` [Compound 275], the midpoint of inhibition against H^+ /K^+ -ATPase, the IC50, lay at 24 µM.

For the molecule `Cc1ccccc1-c1nc2c3ccn(Cc4ccccc4)c3ccn2c1N` [Compound 292, 3-Amino-7-benzyl-2-(2-methylphenyl)imidazo[1,2-a]pyrrolo[3,2-c]pyridine], the IC50 at H^+ /K^+ -ATPase came to 8.8 µM.

For `Cc1ccccc1-c1nc2c3sccc3cc(C)n2c1N` [Compound 311, 3-Amino-5-methyl-2-(2-methylphenyl)imidazo[1,2-a]thieno[2,3-c]pyridine], half-maximal inhibition at H^+ /K^+ -ATPase (IC50) required 8 µM.

For the molecule `CCCN(CC)c1c(-c2ccccc2C)nc2c3sccc3ccn12` [Compound 356, 3-(N-Ethyl-N-propylamino)-2-(2-methylphenyl)imidazo[1,2-a]thieno[2,3-c]pyridine], the IC50 against H^+ /K^+ -ATPase is 8.4 µM.
